Source: patent publication US9682066B2 (University of Cincinnati, priority 2012, dated 2017)

What was measured:
[1] = target: T1, aromatase activity in rat glioma cell line C6 (Rattus norvegicus, UniProt P22443); experiment: Aromatase activity (estradiol EIA assay); assay type: cell-based; details: testosterone 0.1 μM, 2 days incubation
T1 construct: endogenous in cells; host or cells: C6 rat glioma cell line
T1 sequence (P22443 1-508): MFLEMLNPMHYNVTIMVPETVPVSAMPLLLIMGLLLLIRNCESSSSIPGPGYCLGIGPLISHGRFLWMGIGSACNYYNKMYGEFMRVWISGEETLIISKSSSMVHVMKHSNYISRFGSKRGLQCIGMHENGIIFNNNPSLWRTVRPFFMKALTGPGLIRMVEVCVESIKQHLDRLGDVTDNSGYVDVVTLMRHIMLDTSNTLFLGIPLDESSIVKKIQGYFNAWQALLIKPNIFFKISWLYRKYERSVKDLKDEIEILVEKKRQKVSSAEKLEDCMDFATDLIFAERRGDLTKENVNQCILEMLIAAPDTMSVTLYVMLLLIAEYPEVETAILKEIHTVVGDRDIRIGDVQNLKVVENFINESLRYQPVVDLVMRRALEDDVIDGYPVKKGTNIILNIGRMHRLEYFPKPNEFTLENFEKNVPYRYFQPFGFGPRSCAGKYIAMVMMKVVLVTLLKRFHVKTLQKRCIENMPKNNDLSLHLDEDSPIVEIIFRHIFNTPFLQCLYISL

[2] = Normal brain ECF (microdialysis) versus plasma pharmacokinetics, IV bolus; details: for Cmax, Brain: brain ECF; for Cmax, Brain / AUC0-8 hr, Plasma ub (Unbound) / Cmax, Plasma ub (Unbound): mean±SD;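 on all read-outs here: parameters by non-compartmental analysis, mean±SD, brain ECF sampled by microdialysis in freely moving rats and corrected for in vivo recovery, Kp as brain ECF AUC over unbound plasma AUC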
Description: (§1) Experiments were carried out in female Sprague-Dawley rats weighing 200-250 g. […] Blood samples from jugular vein cannulation and dialysate samples from microdialysis probe implanted stereotactically into the striatum region of the brain were obtained every 30 minutes over 8 hours and analyzed by HPLC (fluorescence detection, Excitation λ, 230 nm; Emission λ, 295 nm). Microdialysate samples were corrected for in vivo relative recovery (9.5%), measured under similar experimental conditions.
(§2) In order to obtain the correct ECF concentrations from those obtained by bioanalysis of dialysate samples, the correction factor known as “% recovery” is employed. The % recovery for a compound can be obtained by in vivo or in vitro recovery analysis. […] In vitro relative recovery was calculated as follows: % recoveryin vitro=[C(dialysate)/C(reservoir)]×100
(§3) At the end of microdialysis, brain tissues were collected after transcardial perfusion for histological evaluation to confirm formation of tumor in the right striatum and immunohistochemistry to differentiate the expression of aromatase in tumoral and normal brain regions. The pharmacokinetic parameters (including time required to achieve maximum drug levels (Tmax), area under the concentrations-time curve (AUC) over a defined time interval, and peak or maximum concentrations (Cmax)) of both plasma and brain ECF were estimated by non-compartmental analysis using WinNonlin 6.2 (Pharsight Inc.).
(§4) The brain ECF concentrations were time-averaged over the collection interval and corrected for in vivo recovery. […] Results are presented as mean±SD. (N=9 for 4 and 8 mg/kg, N=6 for 6 and 12 mg/kg). […] Simultaneous plasma and ECF pharmacokinetic determination facilitated estimation of the relative brain distribution coefficient, calculated as (AUCbrain ecf/AUCplasma, ub).

[3] = in vivo; details: female, Sprague-Dawley, rat, iv
Description: as §1, §2, §3, §4

[4] = Tumoral versus normal brain ECF pharmacokinetics in C6 glioma-bearing rats; assay type: in vivo, female Sprague-Dawley rats
Description: Histology of rat brains was performed as outlined in Apparaju et al., Pharmacokinetics of gemcitabine in tumor and non-tumor extracellular fluid of brain: an in vivo assessment in rats employing intracerebral microdialysis, Cancer Chemother. Pharmacol. 61: 223-29 (2008).

[5] = system: MDA-MB-231; experiment: Cytotoxicity of letrozole (MTT assay); assay type: cell-based; details: Homo sapiens
[6] = system: C6 glioma; experiment: In vivo anti-tumor efficacy of oral dosed letrozole; set-up: species or system rat; details: 4 mg/kg/day oral gavage stopped after 15 days; scan on Day 45
From the text: Rats received tumor implantation as described in Example 6. […] Animals were scanned 5, 10, and 15 days after treatment period to observe change in tumor volume. After 15 days, treatment was stopped. Animals were scanned again on Day 45 (30 days post cessation of treatment).

[7] = Tumoral versus normal brain ECF pharmacokinetics in C6 glioma-bearing rats; assay type: in vivo; details: female, Sprague-Dawley, rat, mean±SD; for AUC(0-t): 8 mg/kg IV bolus
[8] = system: U373MG; experiment: Cytotoxicity of letrozole (MTT assay); assay type: cell-based; details: Homo sapiens, U373 MG
[9] = system: C6 glioma; details: 4 mg/kg/day i.v.
From the text: 10 days after tumor implantation, anesthetized rats were scanned on μPET scanner (Siemens Inveon) to obtain active tumor volume at Day 0.
Animals were scanned again 8-10 days post treatment to assess change in tumor volume.

[10] = system: aromatase; experiment: Aromatase expression in rat glioma tissue (IHC); assay type: in vivo; details: treatment group versus control group (high expression)
Description: Expression of aromatase in tumors from rats of both control and treatment groups was evaluated using immunohistochemical (IHC analysis). Rat ovary (FIG. 12(A)) was used as a positive control for aromatase expression.

[11] = system: rat glioma cell line C6; experiment: Cytotoxicity of letrozole (MTT assay); assay type: cell-based
[12] = Brain pharmacokinetics after oral administration; assay type: in vivo; details: rat, 4 mg/kg oral gavage, brain ECF
From the text: A slight delay in Tmax was observed, consistent with the delay of appearance of the drug in systemic circulation.

[13] = system: T98G; experiment: Cytotoxicity of letrozole (MTT assay); assay type: cell-based; details: Homo sapiens
[14] = system: brain metastases from breast cancer; details: cited from earlier work
[15] = system: MCF-7; experiment: Cytotoxicity of letrozole (MTT assay); assay type: cell-based; details: Homo sapiens, MCF7
[16] = Plasma protein binding with non-specific binding correction; assay type: in vitro ADME; details: NSB correction, concentration range 0.1-10 μM
From the text: Results are presented as mean±SD.

[17] = female, Sprague-Dawley, rat, tumor-free brain ECF (left striatum, control), 8 mg/kg IV bolus, tumor-free brain ECF, mean±SD

**Q.** For N#Cc1ccc(C(c2ccc(C#N)cc2)n2cncn2)cc1 [letrozole, 4,4′-((1H-1,2,4-triazol-1-yl)methylene)dibenzonitrile], which IC50 [1] is on record?
**A.** Its IC50 is 100 nM.

**Q.** What about the “Cmax, Brain” value ([2]; 4 mg/kg IV bolus) of the same molecule?
**A.** The value was 132 ± 79 ng/mL.

**Q.** And the “AUC0-8 hr, Plasma ub (Unbound)” value ([2]; 4 mg/kg IV bolus)?
**A.** The value was 1817 ± 354 ng·h/mL.

**Q.** What about the “Cmax, Plasma ub (Unbound)” value ([2]; 4 mg/kg IV bolus) of the same molecule?
**A.** Its value is 259 ± 9 ng/mL.

**Q.** And the “AUC0-8 hr, Plasma ub (Unbound)” value ([2]; 6 mg/kg IV bolus)?
**A.** The value was 2272 ± 56 ng·h/mL.

**Q.** What about the “Cmax, Plasma ub (Unbound)” value ([2]; 6 mg/kg IV bolus) of the same molecule?
**A.** Its value is 348 ± 27 ng/mL.

**Q.** What about the “Cmax, Brain” value ([2]; 8 mg/kg IV bolus) of the same molecule?
**A.** Its value is 376 ± 61 ng/mL.

**Q.** And the “AUC0-8 hr, Plasma ub (Unbound)” value ([2]; 8 mg/kg IV bolus)?
**A.** The value was 3355 ± 412 ng·h/mL.

**Q.** What about the “Cmax, Plasma ub (Unbound)” value ([2]; 8 mg/kg IV bolus) of the same molecule?
**A.** Its value is 485 ± 69 ng/mL.

**Q.** What about the “Cmax, Brain” value ([2]; 12 mg/kg IV bolus) of the same molecule?
**A.** The value was 631 ± 22 ng/mL.

**Q.** What about the “AUC0-8 hr, Plasma ub (Unbound)” value ([2]; 12 mg/kg IV bolus) of the same molecule?
**A.** The value was 3062 ± 539 ng·h/mL.

**Q.** And the “Cmax, Plasma ub (Unbound)” value ([2]; 12 mg/kg IV bolus)?
**A.** The value was 787 ± 98 ng/mL.

**Q.** And the “dose linearity of brain and plasma pharmacokinetics” value ([2]; IV bolus 4, 6, 8, 12 mg/kg, linear regression of Cmax and AUC0-8hr)?
**A.** The value was “linear up to 8 mg/kg and potentially non-linear thereafter”.

**Q.** And the Kp ([3]; brain ECF (striatum microdialysate) versus unbound plasma, 4 mg/kg)?
**A.** Its Kp is 0.51.

**Q.** And the Kp ([3]; brain ECF / unbound plasma, 4 mg/kg)?
**A.** The Kp was 0.32.

**Q.** And the Kp ([3]; brain ECF / unbound plasma, 6 mg/kg)?
**A.** Its Kp is 0.98.

**Q.** What about the Kp ([3]; brain ECF / unbound plasma, 8 mg/kg) of the same molecule?
**A.** The Kp was 0.77.

**Q.** And the Kp ([3]; brain ECF / unbound plasma, 12 mg/kg)?
**A.** The Kp was 0.8.

**Q.** And the AUC(0-t) ([3]; brain ECF, 4 mg/kg)?
**A.** The AUC(0-t) was 583 ± 189 ng·h/mL.

**Q.** What about the Cmax ([3]; brain ECF, 4 mg/kg) of the same molecule?
**A.** Its Cmax is 132 ± 79 ng/mL.

**Q.** And the Tmax ([3]; brain ECF, 4 mg/kg)?
**A.** Its Tmax is 1.4 ± 0.6 h.

**Q.** What about the AUC(0-t) ([3]; brain ECF, 6 mg/kg) of the same molecule?
**A.** The AUC(0-t) was 2010 ± 137 ng·h/mL.

**Q.** What about the AUC(0-t) ([3]; brain ECF, 8 mg/kg) of the same molecule?
**A.** Its AUC(0-t) is 2640 ± 286 ng·h/mL.

**Q.** And the Tmax ([3]; brain ECF, 8 mg/kg)?
**A.** Its Tmax is 1.33 ± 0.5 h.

**Q.** What about the AUC(0-t) ([3]; brain ECF, 12 mg/kg) of the same molecule?
**A.** The AUC(0-t) was 2550 ± 173 ng·h/mL.

**Q.** What about the Tmax ([3]; brain ECF, 12 mg/kg) of the same molecule?
**A.** Its Tmax is 1.3 to 1.5 h.

**Q.** What about the AUC(0-t) ([3]; plasma (total), 4 mg/kg) of the same molecule?
**A.** Its AUC(0-t) is 4780 ± 932 ng·h/mL.

**Q.** And the Cmax ([3]; plasma (total), 4 mg/kg)?
**A.** The Cmax was 682 ± 24 ng/mL.

**Q.** And the AUC(0-t) ([3]; plasma (total), 6 mg/kg)?
**A.** The AUC(0-t) was 5980 ± 146 ng·h/mL.

**Q.** And the Cmax ([3]; plasma (total), 6 mg/kg)?
**A.** The Cmax was 916 ± 71 ng/mL.

**Q.** And the AUC(0-t) ([3]; plasma (total), 8 mg/kg)?
**A.** The AUC(0-t) was 8830 ± 1080 ng·h/mL.

**Q.** And the Cmax ([3]; plasma (total), 8 mg/kg)?
**A.** Its Cmax is 1280 ± 182 ng/mL.

**Q.** What about the AUC(0-t) ([3]; plasma (total), 12 mg/kg) of the same molecule?
**A.** The AUC(0-t) was 8060 ± 1420 ng·h/mL.

**Q.** And the Cmax ([3]; plasma (total), 12 mg/kg)?
**A.** The Cmax was 2070 ± 258 ng/mL.

**Q.** And the “Cmax, Tumor” value ([4]; 4 mg/kg IV bolus, tumoral brain ECF, mean±SD)?
**A.** The value was 354 ± 34 ng/mL.

**Q.** What about the “Cmax, Tumor” value ([4]; 8 mg/kg IV bolus, tumoral brain ECF, mean±SD) of the same molecule?
**A.** The value was 1022 ± 204 ng/mL.

**Q.** And the Tmax ([4]; female, Sprague-Dawley, rat, tumor-free brain ECF (left striatum, control), 4 mg/kg IV bolus, tumor-free brain ECF, mean±SD)?
**A.** The Tmax was 1.75 ± 0.5 h.

**Q.** And the AUC(0-t) ([4]; female, Sprague-Dawley, rat, tumor-free brain ECF (left striatum, control), 4 mg/kg IV bolus, tumor-free brain ECF, mean±SD, read-out: AUC0-8 hr, Control)?
**A.** The AUC(0-t) was 803 ± 216 ng·h/mL.

**Q.** What about the Cmax [4, 17] of the same molecule?
**A.** Its Cmax is 475 ± 87 ng/mL.

**Q.** What about the Tmax [4, 17] of the same molecule?
**A.** The Tmax was 1.33 ± 0.3 h.

**Q.** What about the AUC(0-t) ([4]; female, Sprague-Dawley, rat, tumoral brain ECF (right striatum), 4 mg/kg IV bolus, tumoral brain ECF, mean±SD, read-out: AUC0-8 hr, Tumor) of the same molecule?
**A.** Its AUC(0-t) is 1160 ± 167 ng·h/mL.

**Q.** What about the “penetration of BBB and BTB” value ([4]; rats, microdialysis) of the same molecule?
**A.** Its value is “effectively crosses the BBB and BTB”.

**Q.** What about the IC50 [5] of the same molecule?
**A.** Its IC50 is greater than 100000 nM.

**Q.** What about the “tumor course after cessation of treatment” value [6] of the same molecule?
**A.** Its value is “tumors recurred once treatment was stopped”.

**Q.** And the Cmax ([7]; tumor-free brain ECF (left striatum, control), 4 mg/kg IV bolus, tumor-free brain ECF)?
**A.** The Cmax was 183 ± 13 ng/mL.

**Q.** What about the AUC(0-t) ([7]; tumor-free brain ECF (left striatum, control), tumor-free brain ECF, read-out: AUC0-8 hr, Control) of the same molecule?
**A.** Its AUC(0-t) is 2280 ± 428 ng·h/mL.

**Q.** And the AUC(0-t) ([7]; tumoral brain ECF (right striatum), tumoral brain ECF, read-out: AUC0-8 hr, Tumor)?
**A.** The AUC(0-t) was 4700 ± 555 ng·h/mL.

**Q.** What about the IC50 [8] of the same molecule?
**A.** The IC50 was 4390 nM.

**Q.** And the “clinical condition of treated rats” value ([9]; throughout the treatment period)?
**A.** The value was “no clinical symptoms”.

**Q.** What about the “tumor volume, treatment rat 8, day 8” value ([9]; Day 0 volume 90.9 mm^3) of the same molecule?
**A.** The value was 5.8 mm^3.

**Q.** What about the “tumor volume, treatment rat 4, Day 5” value ([9]; Day 0 volume 100.5 mm^3) of the same molecule?
**A.** The value was 70.5 mm^3.

**Q.** And the “tumor volume, treatment rat 4, Day 10” value ([9]; Day 0 volume 100.5 mm^3)?
**A.** Its value is 18.7 mm^3.

**Q.** And the “aromatase expression in tumor sections (IHC)” value [10]?
**A.** The value was “relatively low aromatase expression”.

**Q.** And the IC50 [11]?
**A.** The IC50 was 110 nM.

**Q.** What about the Cmax [12] of the same molecule?
**A.** Its Cmax is 176 ± 23 ng/mL.

**Q.** What about the Tmax [12] of the same molecule?
**A.** Its Tmax is 5.75 ± 1.8 h.

**Q.** And the AUC(0-t) ([12]; read-out: AUC0-8 hr)?
**A.** Its AUC(0-t) is 976 ± 162 ng·h/mL.

**Q.** And the IC50 [13]?
**A.** Its IC50 is 2810 nM.

**Q.** And the “clinical response of brain metastases, case report (Madhup et al.)” value ([14]; person, 5-mg tablets once daily, repeat CECT in 2005)?
**A.** Its value is “significant reduction in the brain metastases”.

**Q.** And the “clinical response of brain metastases, case report (Goyal et al.)” value ([14]; postmenopausal person, 2.5 mg daily, 20 months later)?
**A.** The value was “complete recovery of neurological functions”.

**Q.** And the IC50 [15]?
**A.** The IC50 was less than 100 nM.

**Q.** And the fraction unbound [16]?
**A.** Its fraction unbound is 0.38.
